Read-outs that look alike come from different tables or passages of the source.
Tests used:
[1] = cited from earlier work
[2] = Hygroscopicity (water uptake) of crystalline aripiprazole forms; format: physicochemical; conditions: small particle population (d90 8-50 microns), unmilled

For `O=C1CCc2ccc(OCCCCN3CCN(c4cccc(Cl)c4Cl)CC3)cc2N1` [Type I aripiprazole, 7-[4-[4-(2,3-dichlorophenyl)-1-piperazinyl]butoxy]-3,4-dihydrocarbostyril], the hygroscopicity ([1]; as taught by WO 03/26659) is given as “significantly hygroscopic”.
In the case of `O=C1CCc2ccc(OCCCCN3CCN(c4cccc(Cl)c4Cl)CC3)cc2N1` [Anhydrous Form B, 7-[4-[4-(2,3-dichlorophenyl)-1-piperazinyl]butoxy]-3,4-dihydrocarbostyril], the “water uptake (hygroscopicity)” value ([1]; in 24 hours, per WO 03/26659) is given as “less than 0.4%”.
With `O=C1CCc2ccc(OCCCCN3CCN(c4cccc(Cl)c4Cl)CC3)cc2N1` [aripiprazole Type II, 7-[4-[4-(2,3-dichlorophenyl)-1-piperazinyl]butoxy]-3,4-dihydrocarbostyril] the hygroscopicity [2] was “not significantly hygroscopic and/or is non-hygroscopic”.

Reference: US8529949B2, “Pharmaceutical tablets of crystalline type II aripiprazole” (Synthon BV, priority 2005, dated 2013)
